According to patent publication US11407725B2 (The Board of Trustees of the University of Illinois, priority 2018, dated 2022):
Like-named read-outs stand apart in the source and are kept apart here.

Tests used:
[1] = system: e-CSC and non-CSC melanoma lung metastases; assay: Ex vivo lung metastases imaging; type: in vivo, mice; settings: lungs perfused ex vivo, day 7 and 11
Procedure: Six to eight-week-old female C57BL/6J mice were purchased from Jackson Laboratory. Experimental metastases were established by injecting 2×10^5 melanoma cells via lateral tail vein injection. Mice were euthanized at either 7- or 11-days post injection. Immediately after euthanization, their lungs were excised and perfused with about 1 mL of either 15 μM AlDeSense AM or 15 μM Ctrl-AlDeSense AM in PBS. Outer portions of the lungs were rinsed in 15 mL of PBS to remove blood or excess dyes. After 2 hours incubation at room temperature (25° C.), the lungs were imaged on the IVIS spectrum imaging system (Perkin Elmer). Data was processed using Living Image software (Version 4.1).

[2] = system: e-CSC and non-CSC B16F0 tumors; assay: In vivo melanoma tumor fluorescence imaging; parameters: species or system mice; settings: 1 and 2 weeks
Log D7.4 = type: physicochemical; settings: pH 7.4
[3] = Photophysical properties (absorbance, emission, extinction coefficient, quantum yield); type: physicochemical; settings: for Quantum Yield: Probes 1-8
K562 cells = assay: Trypan blue cytotoxicity / viability assay; type: cell-based
Procedure: K562 cells were plated in a 96-well plate with 50,000 cells per well. Each well was filled to a final volume of 100 μL IMDM media with 0.25% DMSO. Wells were tested using red-AlDeSense or Ctrl-red-AlDeSense (1 μM and 5 μM each) or using a DMSO control. After 6-, 12-, and 24-hour incubation periods at 37° C. and 5% CO2, a 10 μL sample was removed from each condition and combined with 10 μL 0.4% w/v trypan blue in PBS. Samples were incubated for 3 minutes at room temperature before being loaded on a hemocytometer where live and dead cells were counted. Conditions were tested in triplicate for each time point. Samples were analyzed on an EVOS digital inverted microscope using transmitted white light for brightfield imaging and the Cy5 filter cube for trypan blue visualization.
K562 cells were plated in a 96-well plate at a density of 500,000 cells/mL in full IMDM media supplemented with either 1 μM or […] AlDeSense AM. Equivalent samples were supplemented with 1 μM or […] as a vehicle control. At 6, 12, and 24 hours, a 10 μL sample was removed from each of the samples and mixed 1:1 with a 0.4% wt/volume trypan blue solution in PBS. Samples were incubated for 1 minute at room temperature before being loaded onto a hemocytometer where live and dead cells were counted. Each sample was made in triplicate for each time point.

ALDH1A1 [4] = molecular target: T1, ALDH1A1 (Homo sapiens, UniProt P00352); assay: Fluorescence turn-on of AlDeSense with recombinant ALDH1A1; type: biochemical; settings: fluorescent enhancement when treated with ALDH1A1; 1 μM probe
T1 construct: made in house
T1 sequence (P00352 1-501): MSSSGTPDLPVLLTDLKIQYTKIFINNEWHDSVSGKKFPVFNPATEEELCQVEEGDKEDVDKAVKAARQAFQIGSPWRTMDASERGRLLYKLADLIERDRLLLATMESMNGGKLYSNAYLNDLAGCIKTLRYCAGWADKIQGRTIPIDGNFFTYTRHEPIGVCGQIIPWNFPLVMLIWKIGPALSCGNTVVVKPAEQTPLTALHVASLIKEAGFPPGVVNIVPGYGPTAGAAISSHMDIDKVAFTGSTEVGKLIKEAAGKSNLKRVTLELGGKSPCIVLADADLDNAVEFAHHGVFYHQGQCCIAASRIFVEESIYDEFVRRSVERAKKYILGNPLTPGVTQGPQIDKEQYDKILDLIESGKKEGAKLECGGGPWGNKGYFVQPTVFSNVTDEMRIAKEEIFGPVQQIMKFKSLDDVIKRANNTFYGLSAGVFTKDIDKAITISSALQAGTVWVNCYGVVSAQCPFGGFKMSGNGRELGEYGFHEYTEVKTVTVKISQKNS
Procedure: Activation of AlDeSense was assessed using 20 units of each ALDH isoform. Activity was determined by activity measurements using each isoform's preferred substrate (1 unit=1 μmol substrate turned over/mol enzyme/min). Further details are in the supplementary information. All enzymatic reactions were performed in 50 mM triethanolamine buffer (pH 7.4, Thermo Fisher) with 2.5 mM NAD+(Alfa Aesar) and 5% v/v DMSO (Thermo Fisher) in a 1 mL quartz cuvette at room temperature.
AlDeSense activation was determined using fluorescence. Immediately before measurement, AlDeSense (1 μM) was added to a quartz cuvette. After vigorous mixing, the reaction was monitored at room temperature for 15 min. Fluorescence spectra were acquired according to following parameters: λex=498 nm, and emission range=505-580 nm. All scans were normalized to the signal from AlDeSense in 50 mM TEA and 2.5 mM NAD+(without enzyme). Endpoint measurements at 15 min were performed in triplicate and reported as the averages±standard deviation.

[5] = pKa determination (pH profile of fluorescence); settings: Britton-Robinson buffer
Procedure: The fluorescence of 1 μM of each compound was measured in 40 mM Britton-Robinson buffer at pH 2-9 in 0.5 pH intervals. Each measurement was performed in triplicate. […] Error bars are ±standard deviation (SD).

ALDH1A1 [6] = molecular target: T1, ALDH1A1; assay: ALDH isoform selectivity of red probes: ALDH1A1; type: biochemical; settings: for Enzyme Activity 1A1 / Enzymatic Turn On: Table 2; for Enzymatic Turn On: ALDH1A1, 2 μM dye
Procedure: (§1) Each ALDH isoform was added to a 50 mM triethanolamine solution (pH 7.4) containing 2.0 mM NAD^+ and 100 μM substrate at room temperature. Benzaldehyde was the substrate for ALDH3A1. Propanal was the substrate for all other isoforms. ALDH isoform activity was determined by monitoring the rate of NADH production through the increase in absorbance at 340 nm (ε=6220 M^−1cm^−1). For these assays, 1 unit is defined as the amount of enzyme that catalyzes the conversion of […] per minute. For every combination of dye and enzyme, 2 μM dye was preincubated with 2.0 mM NAD^+ in 50 mM triethanolamine solution (pH 7.4). The reaction was initiated by addition of 1 unit of ALDH. Dyes were excited at 590 nm, and fluorescence was measured continuously at 610 nm.

ALDH1A3 = molecular target: T2, ALDH1A3 (Homo sapiens, UniProt P47895); assay: ALDH isoform selectivity of red probes: ALDH1A3; type: biochemical; settings: for Enzyme Activity 1A3: Table 2
T2 construct: made in house
T2 sequence (P47895 1-512): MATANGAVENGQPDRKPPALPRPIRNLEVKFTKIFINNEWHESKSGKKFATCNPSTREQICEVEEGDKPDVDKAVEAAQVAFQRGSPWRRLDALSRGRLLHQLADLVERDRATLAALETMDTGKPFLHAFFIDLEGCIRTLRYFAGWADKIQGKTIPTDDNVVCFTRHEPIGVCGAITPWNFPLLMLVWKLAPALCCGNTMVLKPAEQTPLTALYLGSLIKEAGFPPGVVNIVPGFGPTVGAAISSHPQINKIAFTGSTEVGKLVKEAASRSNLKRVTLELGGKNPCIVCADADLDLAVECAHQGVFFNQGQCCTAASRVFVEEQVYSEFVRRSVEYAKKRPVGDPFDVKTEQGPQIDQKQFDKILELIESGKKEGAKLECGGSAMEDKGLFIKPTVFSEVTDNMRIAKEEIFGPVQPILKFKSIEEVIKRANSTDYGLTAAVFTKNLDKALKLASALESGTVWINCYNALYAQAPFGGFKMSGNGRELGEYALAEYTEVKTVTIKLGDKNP
Procedure: as §1

[7] = Stability of the fluorophore against water-mediated decomposition; type: physicochemical

CC(=O)c1ccc(-c2c3cc(F)c(=O)cc-3oc3cc(O)c(F)cc23)c(C)c1 [Ctrl-AlDeSense]
fluorescence of e-CSC lungs versus non-CSC lungs [1]: not statistically different | signal in e-CSC versus non-CSC tumors [2]: did not show increased signal | logD (Log D7.4): 0.87 | ε [3]: 68000 M⁻¹ cm⁻¹ | λcm ([3]; Table 1): 518 nm | λabs ([3]; maximum absorbance): 496 nm | ΦF ([3]; prior to activation): 0.039 | toxicity in cell viability assay (K562 cells; K562 cells, 6, 12 and 24 hours): non-toxic | Turn-on (fold) (ALDH1A1 [4]): 0 fold | pKa [5]: 4.47

CC(=O)c1cc(F)c(C2=C3C=CC(=O)C=C3[Si](C)(C)c3cc(O)ccc32)c(C)c1F [Ctrl-red-AlDeSense, 10-(4-A cetyl-3,6-difluoro-2-methylphenyl)-7-hydroxy-5,5-dimethyldibenzo[b, e]silin-3(5H)-one]
toxicity in cell viability assay (K562 cells): nontoxic

Cc1cc(C=O)ccc1C1=C2C=CC(=O)C=C2[Si](C)(C)c2cc(O)ccc21 [Probe 1, 4-(7-Hydroxy-5,5-dimethyl-3-oxo-3,5-dihydrodibenzo[b, e]silin-10-yl)-3-methylbenzaldehyde]
turn-on response when treated with ALDH1A1 (ALDH1A1 [6]): 1.7 fold | Enzyme Activity 1A1 (ALDH1A1 [6]): High | Enzymatic Turn On (ALDH1A1 [6]): 1.7 | Quantum Yield [3]: 0.32 | selectivity ALDH1A1 versus ALDH1A3 (ALDH1A3): no longer selective for ALDH1A1 | Enzyme Activity 1A3 (ALDH1A3): Medium

C[Si]1(C)C2=CC(=O)C=CC2=C(c2ccc(C=O)cc2F)c2ccc(O)cc21 [Probe 2, 3-Fluoro-4-(7-hydroxy-5,5-dimethyl-3-oxo-3,5-dihydrodibenzo[b, e]silin-10-yl)benzaldehyde]
stability against water-mediated decomposition of the fluorophore [7]: rapid decomposition

C[Si]1(C)C2=CC(=O)C=CC2=C(c2ccc(C=O)cc2[N+](=O)[O-])c2ccc(O)cc21 [Probe 4, 4-(7-Hydroxy-5,5-dimethyl-3-oxo-3,5-dihydrodibenzo[b, e]silin-10-yl)-3-nitrobenzaldehyde]
Quantum Yield [3]: 0.00

Cc1cc(C=O)c(F)cc1C1=C2C=CC(=O)C=C2[Si](C)(C)c2cc(O)ccc21 [Probe 5, 2-Fluoro-4-(7-hydroxy-5,5-dimethyl-3-oxo-3,5-dihydrodibenzo[b, e]silin-10-yl)-5-methylbenzaldehyde]
turn-on response when treated with ALDH1A1 (ALDH1A1 [6]): 2.6 fold | Enzyme Activity 1A1 (ALDH1A1 [6]): High | Enzymatic Turn On (ALDH1A1 [6]): 2.6 | Quantum Yield [3]: 0.21 | Enzyme Activity 1A3 (ALDH1A3): Low

C[Si]1(C)C2=CC(=O)C=CC2=C(c2c(F)cc(C=O)cc2F)c2ccc(O)cc21 [Probe 6, 3,5-Difluoro-4-(7-hydroxy-5,5-dimethyl-3-oxo-3,5-dihydrodibenzo[b, e]silin-10-yl)benzaldehyde]
turn-on response when treated with ALDH1A1 (ALDH1A1 [6]): 3.9 fold | Enzyme Activity 1A1 (ALDH1A1 [6]): High | Enzymatic Turn On (ALDH1A1 [6]): 3.9 | stability against water-mediated decomposition of the fluorophore [7]: prevent water-mediated decomposition | Quantum Yield [3]: 0.13 | selectivity ALDH1A1 versus ALDH1A3 (ALDH1A3): exhibited cross-reactivity with ALDH1A3 | Enzyme Activity 1A3 (ALDH1A3): High

Cc1c(F)c(C=O)cc(F)c1C1=C2C=CC(=O)C=C2[Si](C)(C)c2cc(O)ccc21 [Probe 8, 2,5-Difluoro-4-(7-hydroxy-5,5-dimethyl-3-oxo-3,5-dihydrodibenzo[b, e]silin-0-yl)-3-methylbenzaldehyde]
Enzyme Activity 1A1 (ALDH1A1 [6]): High | Enzymatic Turn On (ALDH1A1 [6]): 3.1 | Quantum Yield [3]: 0.20 | selectivity ALDH1A1 versus ALDH1A3 (ALDH1A3): selectivity was eroded | Enzyme Activity 1A3 (ALDH1A3): Medium

Cc1cc(C(=O)O)ccc1-c1c2cc(F)c(=O)cc-2oc2cc(O)c(F)cc12 [oxidized AlDeSense]
toxicity in cell viability assay (K562 cells; K562 cells, 6, 12 and 24 hours): non-toxic
